According to the supplement of paper PMC10307832:

Legend:
Experiment in all cases: relative viability (nuclei count vs DMSO), 5 days (fraction); higher = more cells survive
[1] = compound: Cc1cc(Nc2cc(N3CCN(C)CC3)nc(Sc3ccc(NC(=O)C4CC4)cc3)n2)n[nH]1 [Tozasertib] + N=C(N)NC(=N)NCCc1ccccc1 [Phenformin] (partner 250 µM)
In short: (§1)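 Relative viability was taken as the ratio of nuclei in treated wells to nuclei in vehicle wells. Lung cancer cell lines in 1536-well plates received compounds by pin tool one day after seeding, either one drug alone or a fixed anchor-drug dose plus five library-drug doses (not always all listed) in √10 steps. Nuclei were counted on 4× images after 5 days of treatment, and values are medians of duplicate plates.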

[2] = compound: Cc1cc(Nc2cc(N3CCN(C)CC3)nc(Sc3ccc(NC(=O)C4CC4)cc3)n2)n[nH]1 [Tozasertib] + COc1cccc2cc(-c3nc([C@H]4CC[C@H](C(=O)O)CC4)n4ncnc(N)c34)[nH]c12 [OSI-027] (partner 0.5 µM)
In short: as §1

[3] = compound: Cc1cc(Nc2cc(N3CCN(C)CC3)nc(Sc3ccc(NC(=O)C4CC4)cc3)n2)n[nH]1 [Tozasertib] + CS(=O)(=O)CCNCc1ccc(-c2ccc3ncnc(Nc4ccc(OCc5cccc(F)c5)c(Cl)c4)c3c2)o1 [Lapatinib] (partner 2 µM)
In short: as §1

[4] = compound: Cc1cc(Nc2cc(N3CCN(C)CC3)nc(Sc3ccc(NC(=O)C4CC4)cc3)n2)n[nH]1 [Tozasertib] + Cc1nc(NC(=O)N2CCC[C@H]2C(N)=O)sc1-c1ccnc(C(C)(C)C(F)(F)F)c1 [Alpelisib] (partner 2 µM)
In short: as §1

[5] = compound: Cc1cc(Nc2cc(N3CCN(C)CC3)nc(Sc3ccc(NC(=O)C4CC4)cc3)n2)n[nH]1 [Tozasertib] + CCNC(=O)c1noc(-c2cc(C(C)C)c(O)cc2O)c1-c1ccc(CN2CCOCC2)cc1 [Luminespib] (partner 0.01 µM)
In short: as §1

Cell Line | relative viability ([1]; first compound 0.004 µM) | relative viability ([1]; first compound 0.01265 µM) | relative viability ([1]; first compound 0.04 µM) | relative viability ([1]; first compound 0.1265 µM) | relative viability ([2]; first compound 0.004 µM) | relative viability ([2]; first compound 0.01265 µM) | relative viability ([2]; first compound 0.04 µM) | relative viability ([2]; first compound 0.1265 µM) | relative viability ([3]; first compound 0.004 µM) | relative viability ([3]; first compound 0.01265 µM) | relative viability ([3]; first compound 0.04 µM) | relative viability ([3]; first compound 0.1265 µM) | relative viability ([4]; first compound 0.004 µM) | relative viability ([4]; first compound 0.01265 µM) | relative viability ([4]; first compound 0.04 µM) | relative viability ([4]; first compound 0.1265 µM) | relative viability ([5]; first compound 0.004 µM) | relative viability ([5]; first compound 0.01265 µM) | relative viability ([5]; first compound 0.04 µM) | relative viability ([5]; first compound 0.1265 µM)
ABC-1 | 0.218 | 0.202 | 0.261 | 0.172 | 0.542 | 0.495 | 0.58 | 0.207 | 1.26 | 1.04 | 1.13 | 1.24 | 0.916 | 1.06 | 0.721 | 0.816 | 0.521 | 0.638 | 0.402 | 0.686
NCI-H1734 | 0.41 | 0.432 | 0.374 | 0.241 | 0.597 | 0.596 | 0.557 | 0.435 | 1.06 |  |  | 0.497 | 0.656 | 0.64 |  | 0.469 | 0.223 | 0.184 | 0.2 | 0.167
NCI-H2170 | 0.33 | 0.364 | 0.436 | 0.366 | 0.639 | 0.713 | 0.792 | 0.628 | 0.271 | 0.288 | 0.278 | 0.251 | 0.721 | 0.769 | 0.838 | 0.679 | 0.708 | 0.767 | 0.744 | 0.689
SK-MES-1 | 0.691 | 0.642 | 0.71 | 0.696 | 0.518 | 0.633 | 0.647 | 0.531 | 0.477 | 0.468 | 0.514 | 0.438 | 0.967 | 0.746 | 0.894 | 0.535 | 0.921 | 0.731 | 0.82 | 0.82
NCI-H596 |  | 0.808 | 0.968 | 0.834 | 0.785 | 0.628 | 0.797 | 0.771 | 1.17 | 1.07 | 1.11 | 0.49 |  | 0.451 | 0.519 | 0.439 | 0.957 | 0.96 | 1.09 | 0.901
BEN | 0.277 | 0.253 | 0.296 | 0.252 | 0.333 | 0.335 | 0.309 | 0.284 | 0.73 | 0.886 | 0.696 | 0.577 | 1.04 | 0.948 | 1.14 | 0.931 | 0.302 | 0.279 | 0.332 | 0.268
NCI-H2228 | 0.375 | 0.298 | 0.254 | 0.132 | 0.703 | 0.506 | 0.528 | 0.29 | 0.958 |  | 0.765 | 0.336 | 0.806 |  | 0.556 | 0.434 | 0.216 | 0.167 | 0.204 | 0.167
EKVX | 0.256 | 0.212 | 0.23 | 0.222 | 0.692 | 0.671 | 0.734 |  | 0.189 | 0.167 | 0.227 | 0.185 | 0.779 | 0.846 | 1.01 | 0.878 | 0.753 | 0.872 | 0.827 | 0.694
NCI-H2009 | 0.5 | 0.455 | 0.476 | 0.477 | 0.635 | 0.614 | 0.668 | 0.51 | 1.01 | 0.512 | 0.885 | 0.361 | 1.18 | 1.17 | 1.15 | 1.14 | 1.03 | 0.972 | 1.06 | 1.07
NCI-H520 | 0.546 | 0.57 | 0.662 | 0.234 | 0.356 | 0.26 | 0.254 | 0.234 | 0.868 | 0.816 | 0.775 | 0.214 | 0.945 | 0.844 | 0.889 | 0.864 | 0.193 | 0.219 | 0.219 | 0.233
PC-14 | 0.248 | 0.359 | 0.556 | 0.257 |  | 0.795 | 1.06 | 0.523 | 0.293 | 0.287 | 0.354 | 0.361 | 0.982 | 0.95 | 0.954 | 0.956 |  | 0.114 | 0.179 | 0.129
EMC-BAC-2 | 0.486 | 0.513 | 0.518 | 0.357 | 0.381 | 0.389 | 0.381 | 0.262 | 0.851 |  | 0.908 | 0.567 | 0.771 |  | 0.724 | 0.428 | 1.15 | 1.11 | 1.3 | 0.827
HCC-827 | 0.384 | 0.403 | 0.484 | 0.406 | 0.314 |  | 0.789 | 0.582 | 0.222 | 0.18 | 0.215 | 0.192 | 1.03 | 0.931 | 1.06 | 0.954 | 0.281 | 0.854 | 0.714 | 0.766
NCI-H1437 | 0.312 | 0.301 | 0.297 | 0.2 | 1 | 0.794 | 0.874 | 0.606 | 0.782 | 0.74 | 0.759 | 0.329 |  | 0.866 | 1.01 | 0.92 | 1.19 | 1.1 | 1.09 | 1.03
NCI-H647 | 0.687 | 0.526 | 0.602 | 0.177 | 0.836 | 0.763 | 0.763 | 0.33 | 1.13 | 0.989 | 0.895 | 0.235 | 1.43 | 0.915 | 1.06 | 0.371 | 0.24 | 0.152 | 0.186 | 0.194
LC-2-ad | 0.618 | 0.548 | 0.514 | 0.299 | 0.941 | 0.692 | 0.734 | 0.374 | 1.01 | 0.884 | 0.97 | 0.509 | 0.881 | 0.82 | 1.02 | 0.354 | 1.09 | 0.95 | 0.821 | 0.544
